Laboratory results as given in patent US9422267B2, “Fused pyrimidine compounds and use thereof” (Medivation Technologies, Inc., priority 2012, dated 2016).

Assays:
[1] = test system: HCT-116; experiment: Cell Titer-Glo cell viability: HCT-116; assay type: cell-based; conditions: Homo sapiens, HCT116, colon carcinoma, 72 h
Experimental: (§1) This assay quantitates the ATP present in order to determine the number of viable cells in culture. Briefly, the compounds were incubated with the cells for 72 h, followed by cell lysis. The resulting luminescent signal is proportional to the amount of ATP present and, therefore, directly proportional to the number of cells present in culture.
(§2) Compound nos. […] These cell lines are derived from human lung carcinoma, colon adenocarcinoma, colon adenocarcinoma, colon carcinoma, acute promyelocytic leukemia, colon adenocarcinoma, colon adenocarcinoma (from metastatic site lymph node), respectively.
(§3) Compounds 2b, 5, 6b and 10a were tested along with derivatives in viability assays as described above by Caliper LifeSciences Systems (Hanover, Md.), in A549, HCT-15, HCT-116, MCF-7, MDA-MB-231, OVCAR3, T47D, COLO205, HT-29, BT-20, HCC1187, HL-60, MDA-MB-175, SW-620, and UACC812 cells.

[2] = test system: HT-29; experiment: Cell Titer-Glo cell viability: HT-29; assay type: cell-based; conditions: Homo sapiens, HT-29, 72 h, 72 h
Experimental: as §1, §2, §3

[3] = test system: OVCAR-3; experiment: Cell Titer-Glo cell viability: OVCAR-3; assay type: cell-based; conditions: Homo sapiens, OVCAR3, ovarian cancer, 72 h
Experimental: (§4) Compound nos. […] This panel of cell lines includes an ER− breast carcinoma, primary breast ductal carcinoma, prostate adenocarcinoma, mammary adenocarcinoma, mammary ductal carcinoma, mammary ductal carcinoma, ovary adenocarcinoma, ER+ breast carcinoma, ER-HER2+ mammary ductal carcinoma and an ER+ mammary ductal carcinoma, respectively.
as §1, §3

[4] = test system: HL-60; experiment: Cell Titer-Glo cell viability: HL-60; assay type: cell-based, human; conditions: 72 h
Experimental: as §1, §2, §3

[5] = test system: MCF-7; experiment: Cell Titer-Glo cell viability: MCF-7; assay type: cell-based; conditions: Homo sapiens; MCF7, breast cancer; 72 h
Experimental: as §4, §1, §3

[6] = test system: HCC 1187; experiment: Cell Titer-Glo cell viability: HCC 1187; assay type: cell-based; conditions: Homo sapiens; HCC1187, breast cancer; 72 h
Experimental: as §4, §1, §3

[7] = test system: T47D; experiment: Cell Titer-Glo cell viability: T47D; assay type: cell-based; conditions: Homo sapiens, breast cancer, 72 h
Experimental: as §4, §1, §3

[8] = test system: ZR-75-1; experiment: Cell Titer-Glo cell viability: ZR-75-1; assay type: cell-based; conditions: Homo sapiens; ZR-75-1, breast cancer; 72 h
Experimental: as §4, §1

[9] = test system: UACC 812; experiment: Cell Titer-Glo cell viability: UACC 812; assay type: cell-based; conditions: Homo sapiens, UACC-812; UACC812, breast cancer; 72 h
Experimental: as §4, §1, §3
The inhibitory effects of Compound 8a were tested in two cell lines.

[10] = test system: Akt phosphorylation induced by IGF-1R in HT-29 cells; experiment: Western blot analysis of Akt phosphorylation induced by IGF-1R; assay type: cell-based, Human; conditions: then IGF-1 10 ng/mL 10 min, HT-29
[11] = test system: BT-20; experiment: Cell Titer-Glo cell viability: BT-20; assay type: cell-based; conditions: Homo sapiens, BT-20; BT20, breast cancer; 72 h
Experimental: as §4, §1, §3

[12] = test system: COLO 205; experiment: Cell Titer-Glo cell viability: COLO 205; assay type: cell-based; conditions: Homo sapiens; COLO-205, colon adenocarcinoma; 72 h
Experimental: as §1, §2, §3

[13] = test system: A549; experiment: Cell Titer-Glo cell viability: A549; assay type: cell-based; conditions: Homo sapiens; A549, non-small lung carcinoma; 72 h
Experimental: as §1, §2, §3

[14] = test system: HCT-15; experiment: Cell Titer-Glo cell viability: HCT-15; assay type: cell-based; conditions: Homo sapiens, HCT-15; HCT15, colon carcinoma; 72 h
Experimental: as §1, §2, §3

[15] = test system: LNCaP; experiment: Cell Titer-Glo cell viability: LNCaP; assay type: cell-based; conditions: Homo sapiens, prostate cancer, 72 h
Experimental: as §4, §1

[16] = test system: SW-620; experiment: Cell Titer-Glo cell viability: SW-620; assay type: cell-based; conditions: Homo sapiens; SW-620, metastatic colorectal cancer; 72 h
Experimental: as §1, §2, §3

How did the IC50 [1] turn out when C[C@@]1(C(=O)Nc2ccc(F)nc2)CCCN1c1nc(Nc2cc(C3CC3)n[nH]2)c2cccn2n1 [BMS-754807, (S)-1-(4-(5-cyclopropyl-1H-pyrazol-3-ylamino)pyrrolo[1,2-f][1,2,4]triazin-2-yl)-N-(6-fluoropyridin-3-yl)-2-methylpyrrolidine-2-carboxamide, reference compound] was run?
Its IC50 is 10 µM.

And the IC50 ([2]; HT29, colon adenocarcinoma (second entry of the table))?
The IC50 was < 1 µM.

What about the IC50 ([2]; HT-29, colon cancer) of the same compound?
The IC50 was < 10 µM.

What about the IC50 [3] of the same compound?
Its IC50 is < 10 µM.

What about the IC50 ([4]; HL-60, promyelocytic leukemia) of the same compound?
The IC50 was < 10 µM.

And the IC50 ([4]; Homo sapiens, HL-60, HL60, promyelocytic leukemia (second entry of the table))?
Its IC50 is < 10 µM.

What about the IC50 [5] of the same compound?
The IC50 was 100 nM.

And the IC50 [6]?
The IC50 was < 10 µM.

What about the IC50 [7] of the same compound?
The IC50 was < 10 µM.

And the IC50 [8]?
Its IC50 is > 100 µM.

And the IC50 [9]?
Its IC50 is < 100 µM.

And the “phosphorylated AKT levels normalized to actin levels (pAKT/actin)” value ([10]; 10 nM compound 2 h)?
Its value is 0.09.

And the “phosphorylated AKT levels normalized to actin levels (pAKT/actin)” value ([10]; 100 nM compound 2 h)?
The value was 0.02.

What about the IC50 [11] of the same compound?
The IC50 was < 100 µM.

What about the IC50 [12] of the same compound?
Its IC50 is < 1000 nM.

What about the IC50 [13] of the same compound?
The IC50 was < 10 µM.

And the IC50 [14]?
The IC50 was < 100 µM.

What about the IC50 [15] of the same compound?
The IC50 was < 10 µM.

What about the IC50 [16] of the same compound?
The IC50 was 1000 nM.
